Source: patent publication US4965280A, “Antifungal carbinols” (E. I. Du Pont de Nemours and Company, priority 1989, dated 1990)
Values after ≈ are worked out from the molar mass of the structure shown. Where two headings read alike, the source gives them in different places.

Legend:
[1] = test system: Candida albicans ATCC 11651; test: In vivo systemic Candida infection in mice, primary assay; set-up: species or system Candida albicans; CF-1 female mice; details: Candida albicans, 150 mg/kg per day, read-out: % Survival
Outline: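 CF-1 female mice (20 g, 10 per group) were infected IV with 0.2 ml of 1×10^7/ml C. albicans ATCC 11651, then given test compound subcutaneously at 50 or 150 mg/kg/day at 1 and 6 h post-infection and once daily for three more days. Survival was followed for 21 days against infected untreated mice; ≥70% protection at 14 days was scored active.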

Venturia inaequalis = test: Example A apple scab; format: in vivo; details: 100 PPM, read-out: disease control rating, Ex. A
Outline: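 Spray application to run-off on apple seedlings; compound at 100 or 20 ppm in water with 250 ppm TREM 014 (polyhydric alcohol esters) and 6% acetone of final volume.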

[2] = test system: Cercosporidium personatum; test: Example B Peanut Late Leafspot; format: in vivo; details: Nothopassalora personata; 100 PPM; read-out: disease control rating, Ex. B
Outline: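 Spray suspensions at 100 or 20 ppm, prepared from acetone solutions (acetone 6% of final volume) in water carrying 250 ppm of a polyhydric alcohol ester surfactant, were applied to peanut seedlings until run-off.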

Botrytis cinerea = test: Example C bean grey mold; format: in vivo; details: Botrytis cinerea, 24 h, 100 PPM; read-out: disease control rating, Ex. C
Outline: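 Spray rates: 100 and 20 ppm. Vehicle: purified water with 6% acetone by final volume plus 250 ppm TREM 014 (polyhydric alcohol esters). Host plants, broad bean seedlings, were wetted until run-off.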

[3] = test system: Erysiphe graminis f. sp. tritici; test: Example D wheat powdery mildew; format: in vivo; details: Blumeria graminis, 144 h; 100 PPM; read-out: disease control rating, Ex. D
Outline: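 Seedling wheat was treated by spraying to run-off; formulation used acetone as co-solvent (6% final) and TREM 014 surfactant at 250 ppm, with compound at 100 or 20 ppm.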

Pyricularia oryzae = test: whole plant or invertebrate; format: in vivo; details: Pyricularia oryzae, 120 h, read-out: disease control rating, Ex. E, 100 PPM
Rhizoctonia solani [4] = test: Example F rice sheath blight; format: in vivo; details: Rhizoctonia solani, 144 h, 100 PPM; read-out: disease control rating, Ex. F
Outline: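 Foliar run-off spray, rice seedlings: compound at 100 or 20 ppm in aqueous 250 ppm polyhydric alcohol ester surfactant, acetone 6% v/v final.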

Puccinia recondita = test: Example G wheat leaf rust; format: in vivo; details: 100 PPM, read-out: disease control rating, Ex. G
Phytophthora infestans = test: whole plant or invertebrate; format: in vivo; details: Phytophthora infestans, in Solanum lycopersicum, read-out: disease control rating, Ex. H, 100 PPM
Plasmorpara viticola = test: Example I grape downy mildew; format: in vivo; details: read-out: disease control rating, Ex. I
Outline: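 Compounds were dissolved in acetone (6% of final volume) and suspended at 100 or 20 ppm in purified water with 250 ppm TREM 014 surfactant (polyhydric alcohol esters). Grape seedlings were sprayed with this suspension to run-off.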

Pythium aphanadermatum = test: Example J cucumber damping off; format: in vivo; set-up: key to phytotoxicity entry, Ex. J: P: disease control was not measured due to phytoxicity; details: 5 kg/ha; for pest or weed control at 5000 g/ha: Pythium, 336 h, read-out: disease control rating, Ex. J
Outline: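 Seeds and soil were inoculated with a mix of sand, cereal and Pythium aphanadermatum mycelium, the fungus responsible for cucumber damping off. They were kept in a growth chamber at 30° C. for 14 days, and disease was then rated to assess control.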

[5] = test system: Fusarium oxysporum f. sp. cucumerinum; test: Example L cucumber wilt; format: in vivo; details: 336 h, 5 kg/ha, read-out: disease control rating, Ex. L
Procedure: […] Seeds and soil were then inoculated with a mixture of sand, cereal and mycelium of the fungus Fusarium oxysporum f. sp. cucumerinum, causal agent of cucumber wilt, and incubated in a growth chamber at 30° C. for 14 days. Disease ratings were then made.

[6] = test system: Candida albicans ATCC 11651; test: In vitro antifungal MIC, microtiter broth dilution; details: for MIC: Candida albicans, ATCC11651, 24 h, read-out: MIC values, C. albicans, 30°, 24 hours
Procedure: In vitro activity (Table 5) is expressed in terms of the minimal inhibitory concentration (MIC) of the test compound which inhibits the growth of yeasts and fungi.
The target organisms, Candida albicans ATCC 11651 and Aspergillus fumigatus ATCC 28214 are standardized, [V. Bezjak, J. Clinical Micro., 21 509-512 (1984)], to a concentration of 10^7 organisms/ml and maintained at -70° until use. Test compounds are solubilized in dimethyl sulfoxide (DMSO) and diluted in Eagle's Minimum Essential Medium (EMEM) broth to achieve a final concentration of 200 μg/ml. Stock solutions of standard antifungal agents are stored at -70° and diluted in EMEM as required.
The in vitro assay utilizes a microtiter broth dilution technique [L. Polonelli and G. Morace, Mycopathologia, 86, 21-28 (1984)] and C. […] The appropriate wells are inoculated with the required organism (C. albicans at 1×10^4 organisms/ml and A. fumigatus at 5×10^5 organisms/ml) and the assay incubated at 30° for 24 hours.

[7] = test system: Aspergillus fumigatus ATCC 28214; test: In vitro antifungal MIC, microtiter broth dilution; details: Aspergillus fumigatus, ATCC28214, 24 h, read-out: MIC values, A. fumigatus, 30°, 24 hours
Rhizoctonia solani [8] = test: Example K cotton blight; format: in vivo; details: 336 h, 5 kg/ha, read-out: disease control rating, Ex. K
Procedure: […] Seeds and soil were then inoculated with a mixture of sand, cereal and mycelium of the fungus Rhizoctonia solani, causal agent of cotton blight, and incubated in a growth chamber at 30° C. for 14 days. Disease ratings were then made.

Sclerotium rolfsii = test: Example M southern blight; format: in vivo; details: Agroathelia rolfsii, 336 h; 5 kg/ha; read-out: disease control rating, Ex. M
Procedure: […] Seeds and soil were then inoculated with a mixture of sand, cereal and mycelium of the fungus Sclerotium rolfsii, causal agent of sourthern blight, and incubated in a growth chamber at 30° C. for 14 days. Disease ratings were then made.

| Structure (SMILES) | responders at 150 mg/kg ([1]; ATCC11651, 168 h, day 7) [%] | responders at 150 mg/kg ([1]; ATCC11651, 336 h, day 14) [%] | responders at 150 mg/kg ([1]; ATCC11651, 504 h, day 21) [%] | pest or weed control at 100 ppm (Venturia inaequalis) [%] | pest or weed control at 100 ppm [2] [%] | pest or weed control at 100 ppm (Botrytis cinerea) [%] | pest or weed control at 100 ppm [3] [%] | pest or weed control at 100 ppm (Pyricularia oryzae) [%] | pest or weed control at 100 ppm (Rhizoctonia solani [4]) [%] | pest or weed control at 100 ppm (Puccinia recondita) [%] | pest or weed control at 100 ppm (Phytophthora infestans) [%] | pest or weed control at 100 ppm (Plasmorpara viticola) [%] | pest or weed control at 5000 g/ha (Pythium aphanadermatum) [%] | pest or weed control at 5000 g/ha [5] [%] | MIC values, C. albicans ([6]; 30°, 24 hours) [µg/mL] | MIC [7] [µg/mL] | MIC [6] [µg/mL] | phytotoxicity entry, Ex. J (Pythium aphanadermatum) | pest or weed control at 5000 g/ha (Rhizoctonia solani [8]) [%] | pest or weed control at 5000 g/ha (Sclerotium rolfsii) [%] |
| --- | --- | --- | --- | --- | --- | --- | --- | --- | --- | --- | --- | --- | --- | --- | --- | --- | --- | --- | --- | --- |
| C=C(c1ccc(F)cc1)C(O)(Cn1cncn1)c1ccc(F)cc1 (stereo not drawn) [Example 1, 2,3-Bis(4-fluorophenyl)-1-(1H-1,2,4-triazol-1-yl)-3-buten-2-ol] | 100 | 100 | 80 | 62 | 100 | 81 | 98 | 90 | 97 | 100 | 0 | 12 | 0 | 0 | ≤ 0.01 | 6.3 (≈ 19.2 µM) | – | – | – | – |
| C=C(c1ccc(F)cc1)C(O)(Cn1cncn1)c1ccc(Cl)cc1Cl (stereo not drawn) [Example 2] | 100 | 100 | 80 | 62 | 100 | 93 | 98 | 95 | 100 | 100 | 0 | 99 | 0 | 0 | – | 1.6 (≈ 4.23 µM) | ≤ 0.4 | – | – | – |
| C=C(c1cccc(F)c1)C(O)(Cn1cncn1)c1ccc(F)cc1 (stereo not drawn) [Example 15] | 100 | 90 | 60 | 100 | 100 | 99 | 100 | 1 | 93 | 100 | 26 | 0 | 0 | 0 | – | 50 (≈ 153 µM) | 0.1 (≈ 0.305 µM) | – | – | – |
| C=C(c1ccccc1)C(O)(Cn1cncn1)c1ccc(F)cc1 (stereo not drawn) [Example 49, 2-(4-Fluorophenyl)-3-phenyl-1-(1H-1,2,4-triazol-1-yl)-3-buten-2-ol] | 100 | 90 | 60 | 89 | 100 | 62 | 100 | 76 | 96 | 100 | 0 | 0 | 0 | 0 | – | 12.5 (≈ 40.4 µM) | 0.03 (≈ 0.097 µM) | – | – | – |
| C=C(c1ccc(Cl)cc1Cl)C(O)(Cn1cncn1)c1ccc(Cl)cc1Cl (stereo not drawn) [Example 100] | 100 | 50 | 30 | 100 | 100 | 96 | 83 | 95 | 80 | 100 | 0 | 83 | – | – | – | 3.2 (≈ 7.46 µM) | 0.03 (≈ 0.0699 µM) | P | 0 | 0 |
